Laboratory results reported in patent US12219958B2, “Glufosinate additive for improved weed control” (THE BOARD OF TRUSTEES OF THE UNIVERSITY OF ARKANSAS, priority 2019, dated 2025).
Where a name gives a salt, the structure may show the parent alone.

Key:
[1] = system: native large crabgrass populations; assay: Field experiment, large crabgrass control (Examples 2 and 3, FIG. 6); assay type: in vivo; conditions: added to glufosinate 655 g ai/ha; saflufenacil 1 g ai/ha, acifluorfen 14 g ai/ha; 10 pm
[2] = system: Enlist cotton, XtendFlex cotton, LibertyLink GT27 soybean, and LibertyLink corn; conditions: in vivo
[3] = system: native mixture of Palmer amaranth and waterhemp; set-up: species or system Amaranthus palmeri, Amaranthus tuberculatus; conditions: in vivo
[4] = system: Enlist cotton, XtendFlex cotton, LibertyLink GT27 soybean, and LibertyLink corn; conditions: in vivo; remark: listed apart in the source
johnsongrass = assay: Field experiment, johnsongrass control with glufosinate + additive at 10 pm (Example 5, FIG. 12); assay type: in vivo
Palmer amaranth = assay: Field experiment, Palmer amaranth control with glufosinate + additive at 10 pm (Example 5, FIG. 11); assay type: in vivo, Amaranthus palmeri

SMILES | effect of the additive on reductions in weed control due to low-light intensity [1] | crop impact of glufosinate and the additive applied during the day [2] | crop injury when applied at 10 pm versus 10 am [2] | effect of the additive on reductions in weed control due to low-light intensity [3] | crop response [4] | increase in glufosinate efficacy of johnsongrass (johnsongrass; in vivo) | increase in glufosinate efficacy of Palmer amaranth (Palmer amaranth; in vivo) | increase in glufosinate efficacy of johnsongrass (johnsongrass; low-light conditions (10 pm), glufosinate 655 g ai/ha + additive 280 g ai/ha, 15 to 20-cm tall johnsongrass) | increase in glufosinate efficacy of Palmer amaranth (Palmer amaranth; low-light conditions (10 pm), glufosinate 655 g ai/ha + additive 280 g ai/ha, 25 to 30-cm tall Palmer amaranth)
CC(C)N(C)S(=O)(=O)NC(=O)c1cc(-n2c(=O)cc(C(F)(F)F)n(C)c2=O)c(F)cc1Cl [saflufenacil, N′-{2-Chloro-4-fluoro-5-[1,2,3,6-tetrahydro-3-methyl-2,6-dioxo-4-(trifluoromethyl)pyrimidin-1-yl]benzoyl}-N-isopropyl-N-methylsulfamide] | did not alleviate reductions in weed control | negatively impacted at least one of the crops | less | did not alleviate reductions in weed control | – | – | – | – | –
O=C(O)c1cc(Oc2ccc(C(F)(F)F)cc2Cl)ccc1[N+](=O)[O-] [acifluorfen] | did not alleviate reductions in weed control | negatively impacted at least one of the crops | less | did not alleviate reductions in weed control | – | – | – | – | –
CCOP(=S)(OCC)Oc1nc(Cl)c(Cl)cc1Cl [Chlorpyrifos, O,O-Diethyl O-3,5,6-trichloropyridin-2-yl phosphorothioate] | – | – | – | – | not eliciting a negative crop response | greatest increase | greatest increase | – | –
CCOC(=O)/C=C\C(=O)OCC [diethyl maleate] | – | – | – | – | – | – | – | greatest increase | greatest increase
